Laboratory results from article PMC5218480 (PLoS ONE, 2017).

Tested on: MV-4-11 cells
Assay: Gene expression microarray analysis (Affymetrix PrimeView) and GSEA
Type: cell-based, human
Parameters: RFU PODN (11730768_x_at) / Fold change /veh PODN (11730768_x_at) / RFU LINC00158 (11744669_a_at) / Fold change /veh LINC00158 (11744669_a_at) / RFU DUSP10 (11751237_a_at) / Fold change /veh DUSP10 (11751237_a_at) / RFU ID3 (11757404_x_at) / Fold change /veh ID3 (11757404_x_at) / RFU PLEKHG5 (11737974_s_at) / Fold change /veh PLEKHG5 (11737974_s_at) / RFU LRRC4B (11730491_at) / Fold change /veh LRRC4B (11730491_at) / RFU GIMAP4 (11747438_a_at) / Fold change /veh GIMAP4 (11747438_a_at) / RFU KRT8 (11758183_x_at) / Fold change /veh KRT8 (11758183_x_at) / RFU CNN1 (11734310_a_at) / Fold change /veh CNN1 (11734310_a_at) / RFU VPS37D (11726825_at) / Fold change /veh VPS37D (11726825_at) / RFU C10orf10 (11716522_x_at) / Fold change /veh C10orf10 (11716522_x_at) / RFU KIR2DL2 /// KIR2DL4 /// KIR2DL5A /// KIR2DL5B /// KIR2DS1 /// KIR2DS2 /// KIR2DS3 /// KIR2DS4 /// KIR3DL3 /// KIR3DL3 /// KIR3DS1 (11738374_at) / Fold change /veh KIR2DL2 /// KIR2DL4 /// KIR2DL5A /// KIR2DL5B /// KIR2DS1 /// KIR2DS2 /// KIR2DS3 /// KIR2DS4 /// KIR3DL3 /// KIR3DL3 /// KIR3DS1 (11738374_at) / RFU C1QL1 (11718748_at) / Fold change /veh C1QL1 (11718748_at) / RFU TMPRSS4 (11747572_a_at) / Fold change /veh TMPRSS4 (11747572_a_at) / RFU HAMP (11756126_x_at) / Fold change /veh HAMP (11756126_x_at) / RFU RNFT2 (11725882_a_at) / Fold change /veh RNFT2 (11725882_a_at) / RFU NR4A2 (11747474_a_at) / Fold change /veh NR4A2 (11747474_a_at) / RFU ABCC12 (11746883_a_at) / Fold change /veh ABCC12 (11746883_a_at) / RFU TMEM136 (11760407_x_at) / Fold change /veh TMEM136 (11760407_x_at) / RFU CLDN22 /// WWC2 (11732394_at) / Fold change /veh CLDN22 /// WWC2 (11732394_at) / RFU HLA-DPB1 (11760878_x_at) / Fold change /veh HLA-DPB1 (11760878_x_at) / RFU SPINT1 (11716480_a_at) / Fold change /veh SPINT1 (11716480_a_at) / RFU GAP43 (11754022_s_at) / Fold change /veh GAP43 (11754022_s_at) / RFU A4GNT (11735810_at) / Fold change /veh A4GNT (11735810_at) / RFU PRB3 (11715151_x_at) / Fold change /veh PRB3 (11715151_x_at) / RFU TUBB4B (11761932_at) / Fold change /veh TUBB4B (11761932_at) / RFU CAPN14 (11732068_a_at) / Fold change /veh CAPN14 (11732068_a_at) / RFU TMCC2 (11721928_a_at) / Fold change /veh TMCC2 (11721928_a_at) / RFU IRGQ (11745062_a_at) / Fold change /veh IRGQ (11745062_a_at) / RFU FAM174B (11720279_a_at) / Fold change /veh FAM174B (11720279_a_at) / RFU TMPRSS4 (11748680_a_at) / Fold change /veh TMPRSS4 (11748680_a_at) / RFU FAM212B (11763350_a_at) / Fold change /veh FAM212B (11763350_a_at) / RFU PLEKHG5 (11743358_a_at) / Fold change /veh PLEKHG5 (11743358_a_at) / RFU ZSCAN30 (11745921_a_at) / Fold change /veh ZSCAN30 (11745921_a_at) / RFU CMKLR1 (11741424_a_at) / Fold change /veh CMKLR1 (11741424_a_at) / RFU LOC101060620 /// MAPK8IP1 (11723275_at) / Fold change /veh LOC101060620 /// MAPK8IP1 (11723275_at) / RFU SPTSSB (11747773_x_at) / Fold change /veh SPTSSB (11747773_x_at) / RFU PRSS12 (11739890_at) / Fold change /veh PRSS12 (11739890_at) / RFU BIN1 (11741810_x_at) / Fold change /veh BIN1 (11741810_x_at) / RFU WNT11 (11732464_a_at) / Fold change /veh WNT11 (11732464_a_at) / RFU C10orf10 (11716521_a_at) / Fold change /veh C10orf10 (11716521_a_at) / RFU C5orf56 (11738089_at) / Fold change /veh C5orf56 (11738089_at) / RFU CYB561 (11721691_x_at) / Fold change /veh CYB561 (11721691_x_at) / RFU ANKRD19P (11752326_a_at) / Fold change /veh ANKRD19P (11752326_a_at) / RFU OR2T12 /// OR2T33 /// OR2T8 (11738714_s_at) / Fold change /veh OR2T12 /// OR2T33 /// OR2T8 (11738714_s_at) / RFU VCAN (11748164_a_at) / Fold change /veh VCAN (11748164_a_at) / RFU JSRP1 (11732532_at) / Fold change /veh JSRP1 (11732532_at) / RFU KRTAP10-11 (11738290_x_at) / Fold change /veh KRTAP10-11 (11738290_x_at) / RFU MYO3A (11730013_a_at) / Fold change /veh MYO3A (11730013_a_at) / RFU EBF3 (11725865_a_at) / Fold change /veh EBF3 (11725865_a_at) / RFU CAMK2N1 (11719241_x_at) / Fold change /veh CAMK2N1 (11719241_x_at) / RFU C5orf56 (11738088_a_at) / Fold change /veh C5orf56 (11738088_a_at) / RFU OLFML3 (11715873_a_at) / Fold change /veh OLFML3 (11715873_a_at) / RFU LOC100653217 /// NTM (11731650_a_at) / Fold change /veh LOC100653217 /// NTM (11731650_a_at) / RFU MAPK11 (11762145_a_at) / Fold change /veh MAPK11 (11762145_a_at) / RFU FIZ1 (11724087_x_at) / Fold change /veh FIZ1 (11724087_x_at) / RFU OASL (11726364_x_at) / Fold change /veh OASL (11726364_x_at) / RFU SOX15 (11748057_x_at) / Fold change /veh SOX15 (11748057_x_at) / RFU CD79A (11719716_a_at) / Fold change /veh CD79A (11719716_a_at) / RFU HIST1H1D (11736915_at) / Fold change /veh HIST1H1D (11736915_at) / RFU CASKIN2 (11723855_a_at) / Fold change /veh CASKIN2 (11723855_a_at) / RFU LOC730098 (11760151_x_at) / Fold change /veh LOC730098 (11760151_x_at) / RFU OR4N2 (11742367_at) / Fold change /veh OR4N2 (11742367_at) / RFU PRRT2 (11749266_a_at) / Fold change /veh PRRT2 (11749266_a_at) / RFU SNX32 (11753110_a_at) / Fold change /veh SNX32 (11753110_a_at) / RFU CDHR5 (11726645_a_at) / Fold change /veh CDHR5 (11726645_a_at) / RFU RCAN1 (11760418_a_at) / Fold change /veh RCAN1 (11760418_a_at) / RFU FAM167A (11723789_a_at) / Fold change /veh FAM167A (11723789_a_at) / RFU FAM26E (11764081_at) / Fold change /veh FAM26E (11764081_at) / RFU ISYNA1 (11749810_s_at) / Fold change /veh ISYNA1 (11749810_s_at) / RFU ACY1 (11761880_at) / Fold change /veh ACY1 (11761880_at) / RFU 11764098_at / Fold change /veh 11764098_at / RFU SAMD14 (11745864_x_at) / Fold change /veh SAMD14 (11745864_x_at) / RFU NPB (11741838_a_at) / Fold change /veh NPB (11741838_a_at) / RFU TMPRSS6 (11731388_a_at) / Fold change /veh TMPRSS6 (11731388_a_at) / RFU KRTAP10-2 (11738614_at) / Fold change /veh KRTAP10-2 (11738614_at) / RFU ARHGAP8 /// PRR5-ARHGAP8 (11727945_x_at) / Fold change /veh ARHGAP8 /// PRR5-ARHGAP8 (11727945_x_at) / RFU KRTAP5-7 /// NADSYN1 (11734609_at) / Fold change /veh KRTAP5-7 /// NADSYN1 (11734609_at) / RFU RASL12 (11751679_a_at) / Fold change /veh RASL12 (11751679_a_at) / RFU CDKN2B (11736163_a_at) / Fold change /veh CDKN2B (11736163_a_at) / RFU PRF1 (11729649_at) / Fold change /veh PRF1 (11729649_at) / RFU, ZNF638 /// ZNF638-IT1 / Fold change vs veh, ZNF638 /// ZNF638-IT1 / RFU, PANK3 / Fold change vs veh, PANK3 / RFU, SH3YL1 / Fold change vs veh, SH3YL1 / RFU, ZEB2 / Fold change vs veh, ZEB2 / RFU, NRIP1 / Fold change vs veh, NRIP1 / RFU, PTTG1IP / Fold change vs veh, PTTG1IP / RFU, CAPN2 / Fold change vs veh, CAPN2 / RFU, MED14 / Fold change vs veh, MED14 / RFU, SNORA58 / Fold change vs veh, SNORA58 / RFU, C1orf63 / Fold change vs veh, C1orf63 / RFU, LRRFIP1 / Fold change vs veh, LRRFIP1 / RFU, NDUFAF7 / Fold change vs veh, NDUFAF7 / RFU, SLC12A2 / Fold change vs veh, SLC12A2 / RFU, IBTK / Fold change vs veh, IBTK / RFU, ESF1 / Fold change vs veh, ESF1 / Fold change vs veh, TMEM50B / RFU, TAOK1 / Fold change vs veh, TAOK1 / RFU, ACBD3 / Fold change vs veh, ACBD3 / RFU, TMA16 / Fold change vs veh, TMA16 / RFU, RWDD3 / Fold change vs veh, RWDD3 / RFU, BCAT1 / Fold change vs veh, BCAT1 / RFU, EDEM3 / Fold change vs veh, EDEM3 / RFU, TMEM33 / Fold change vs veh, TMEM33 / RFU, WDR75 / Fold change vs veh, WDR75 / RFU, AHCTF1 / Fold change vs veh, AHCTF1 / RFU, TFRC / Fold change vs veh, TFRC / RFU, ZDHHC17 / Fold change vs veh, ZDHHC17 / RFU, NOM1 / Fold change vs veh, NOM1 / RFU, ARL8B / Fold change vs veh, ARL8B / RFU, ZBTB11 / Fold change vs veh, ZBTB11 / RFU, TAMM41 / Fold change vs veh, TAMM41 / RFU, KIAA1704 /// LOC100996395 / Fold change vs veh, KIAA1704 /// LOC100996395 / RFU, ING1 / Fold change vs veh, ING1 / RFU, TRMT61B / Fold change vs veh, TRMT61B / RFU, FUBP3 / Fold change vs veh, FUBP3 / RFU, TP53 / Fold change vs veh, TP53 / RFU, TNKS2 / Fold change vs veh, TNKS2 / RFU, ZFP14 / Fold change vs veh, ZFP14 / RFU, ACTR2 / Fold change vs veh, ACTR2 / RFU, PPP3R1 / Fold change vs veh, PPP3R1 / RFU, PIK3R1 / Fold change vs veh, PIK3R1 / RFU, HNRNPA1 / Fold change vs veh, HNRNPA1 / RFU, RNF170 / Fold change vs veh, RNF170 / RFU, ZNF28 / Fold change vs veh, ZNF28 / RFU, RNGTT / Fold change vs veh, RNGTT / RFU, OGT / Fold change vs veh, OGT / RFU, BRD1 / Fold change vs veh, BRD1 / RFU, MARS / Fold change vs veh, MARS / RFU, ZNF655 / Fold change vs veh, ZNF655 / RFU, FAHD1 / Fold change vs veh, FAHD1 / RFU, BDP1 / Fold change vs veh, BDP1 / RFU, LRRCC1 / Fold change vs veh, LRRCC1 / RFU, ARID1A / Fold change vs veh, ARID1A / RFU, ZNF146 / Fold change vs veh, ZNF146 / RFU, ZNF330 / Fold change vs veh, ZNF330 / RFU, GPN3 / Fold change vs veh, GPN3 / RFU, C9orf123 / Fold change vs veh, C9orf123 / RFU, N4BP2L2 / Fold change vs veh, N4BP2L2 / RFU, ARFIP1 / Fold change vs veh, ARFIP1 / RFU, FAM179B / Fold change vs veh, FAM179B / RFU, BCL10 / Fold change vs veh, BCL10 / RFU, UHRF1BP1L / Fold change vs veh, UHRF1BP1L / RFU, BET1 / Fold change vs veh, BET1 / RFU, CNOT2 / Fold change vs veh, CNOT2 / RFU, ZNF268 / Fold change vs veh, ZNF268 / Fold change vs veh, ZNF507 / RFU, DGCR2 / Fold change vs veh, DGCR2 / RFU, WDSUB1 / Fold change vs veh, WDSUB1 / Fold change vs veh, HSP90B1 /// MIR3652 / RFU, ADSS / Fold change vs veh, ADSS / RFU, GK / Fold change vs veh, GK / RFU, ZNF148 / Fold change vs veh, ZNF148 / RFU, TAF9 / Fold change vs veh, TAF9 / RFU, SLC1A5 / Fold change vs veh, SLC1A5 / RFU, SLMO2 / Fold change vs veh, SLMO2 / RFU, ABCC4 / Fold change vs veh, ABCC4 / RFU, LOC101060439 /// RAP1B / Fold change vs veh, LOC101060439 /// RAP1B / RFU, RFX7 / Fold change vs veh, RFX7 / RFU, GTPBP10 / Fold change vs veh, GTPBP10 / RFU, CNEP1R1 / Fold change vs veh, CNEP1R1 / RFU, BIVM-ERCC5 /// ERCC5 / Fold change vs veh, BIVM-ERCC5 /// ERCC5 / RFU, ILF3 / Fold change vs veh, ILF3 / RFU 11762660_at / Fold change /veh 11762660_at / RFU VCAN (11757783_s_at) / Fold change /veh VCAN (11757783_s_at) / RFU DDX43 (11728927_at) / Fold change /veh DDX43 (11728927_at) / RFU KRT8 (11758188_x_at) / Fold change /veh KRT8 (11758188_x_at) / RFU NKD1 (11759106_at) / Fold change /veh NKD1 (11759106_at) / RFU SRD5A1 (11742802_a_at) / Fold change /veh SRD5A1 (11742802_a_at) / RFU TPSAB1 /// TPSB2 (11721975_s_at) / Fold change /veh TPSAB1 /// TPSB2 (11721975_s_at) / RFU GSTM3 (11746129_a_at) / Fold change /veh GSTM3 (11746129_a_at) / RFU IL23R (11737362_x_at) / Fold change /veh IL23R (11737362_x_at) / RFU TMEM51 (11727254_a_at) / Fold change /veh TMEM51 (11727254_a_at) / RFU PIWIL2 (11732686_x_at) / Fold change /veh PIWIL2 (11732686_x_at) / RFU ORM1 (11744905_x_at) / Fold change /veh ORM1 (11744905_x_at) / RFU CCDC152 (11743942_at) / Fold change /veh CCDC152 (11743942_at) / RFU ECM1 (11717891_a_at) / Fold change /veh ECM1 (11717891_a_at) / RFU IL23R (11748794_a_at) / Fold change /veh IL23R (11748794_a_at) / RFU TNFAIP8L3 (11732012_x_at) / Fold change /veh TNFAIP8L3 (11732012_x_at) / RFU MBOAT4 (11741988_at) / Fold change /veh MBOAT4 (11741988_at) / RFU 11764193_at / Fold change /veh 11764193_at / RFU TMEM53 (11763286_at) / Fold change /veh TMEM53 (11763286_at) / RFU MAGEB2 (11727129_at) / Fold change /veh MAGEB2 (11727129_at) / RFU TMEM200A (11744735_a_at) / Fold change /veh TMEM200A (11744735_a_at) / RFU CCDC152 (11751479_a_at) / Fold change /veh CCDC152 (11751479_a_at) / RFU FAM211A (11726209_a_at) / Fold change /veh FAM211A (11726209_a_at) / RFU RGS16 (11746705_a_at) / Fold change /veh RGS16 (11746705_a_at) / RFU VCAN (11755009_s_at) / Fold change /veh VCAN (11755009_s_at) / RFU RHOB (11743442_s_at) / Fold change /veh RHOB (11743442_s_at) / RFU RGS16 (11720943_a_at) / Fold change /veh RGS16 (11720943_a_at) / RFU RGS16 (11720944_at) / Fold change /veh RGS16 (11720944_at) / RFU, VPS4B / Fold change vs veh, VPS4B / RFU, CREB1 / Fold change vs veh, CREB1 / RFU, DNAJC13 / Fold change vs veh, DNAJC13 / RFU, GNAQ / Fold change vs veh, GNAQ / RFU, CDK5R1 / Fold change vs veh, CDK5R1 / RFU, ZRANB3 / Fold change vs veh, ZRANB3 / RFU, CUL4A / Fold change vs veh, CUL4A / RFU, CCNY / Fold change vs veh, CCNY / RFU, UFL1 / Fold change vs veh, UFL1 / RFU, COG3 / Fold change vs veh, COG3 / RFU, DIAPH2 / Fold change vs veh, DIAPH2 / RFU, SKA2 / Fold change vs veh, SKA2 / RFU, AFF3 / Fold change vs veh, AFF3 / RFU, LMF1 / Fold change vs veh, LMF1 / RFU, IPO11 / Fold change vs veh, IPO11 / RFU, DFFB / Fold change vs veh, DFFB / RFU, FOXP1 / Fold change vs veh, FOXP1 / RFU, CARD8 / Fold change vs veh, CARD8 / RFU, STRN3 / Fold change vs veh, STRN3 / RFU, ADK / Fold change vs veh, ADK / RFU, RASSF2 / Fold change vs veh, RASSF2 / RFU, WIPF1 / Fold change vs veh, WIPF1 / RFU, LARP1B / Fold change vs veh, LARP1B / RFU, RASA1 / Fold change vs veh, RASA1 / RFU, RB1 / Fold change vs veh, RB1 / RFU, PPFIA1 / Fold change vs veh, PPFIA1 / RFU, MAT2A / Fold change vs veh, MAT2A / RFU, CCT5 / Fold change vs veh, CCT5 / RFU, WDR92 / Fold change vs veh, WDR92 / RFU, CUX1 / Fold change vs veh, CUX1 / RFU, TTC7A / Fold change vs veh, TTC7A / RFU, TMEM135 / Fold change vs veh, TMEM135 / RFU, DEPTOR / Fold change vs veh, DEPTOR / RFU, CPM / Fold change vs veh, CPM / RFU, DNAJB6 / Fold change vs veh, DNAJB6 / RFU, CACNA2D3 / Fold change vs veh, CACNA2D3 / RFU, DTX4 / Fold change vs veh, DTX4 / RFU, TFCP2 / Fold change vs veh, TFCP2 / RFU, GMCL1 /// GMCL1P1 / Fold change vs veh, GMCL1 /// GMCL1P1 / RFU, AEBP2 / Fold change vs veh, AEBP2 / RFU, SNHG1 /// SNORD22 /// SNORD25 /// SNORD26 /// SNORD27 /// SNORD28 /// SNORD29 /// SNORD31 / Fold change vs veh, SNHG1 /// SNORD22 /// SNORD25 /// SNORD26 /// SNORD27 /// SNORD28 /// SNORD29 /// SNORD31 / Fold change (Aza/veh), C12orf56 (ProbeSet 11735607_a_at) / Fold change (ACY-1035/veh), C12orf56 (ProbeSet 11735607_a_at) / Fold change (Aza/veh), FGFR1OP (ProbeSet 11751329_s_at) / Fold change (ACY-1035/veh), FGFR1OP (ProbeSet 11751329_s_at) / Fold change (Aza/veh), VPS36 (ProbeSet 11739960_a_at) / Fold change (ACY-1035/veh), VPS36 (ProbeSet 11739960_a_at) / RFU SYPL1 (11715823_x_at) / Fold change /veh SYPL1 (11715823_x_at) / RFU IGFBP7 (11715501_s_at) / Fold change /veh IGFBP7 (11715501_s_at) / RFU REEP3 (11722064_at) / Fold change /veh REEP3 (11722064_at) / RFU IGLL1 (11728026_x_at) / Fold change /veh IGLL1 (11728026_x_at): dose or concentration left out as unconfirmed
Details: MV-4-11 cells, 48 hours

In the case of `Nc1ncn([C@@H]2O[C@H](CO)[C@@H](O)[C@H]2O)c(=O)n1` [azacitidine], the “Fold change /veh RHOB (11743442_s_at)” value is reported as 1.27.
